# Assays:
# Gefitinib = compound: COc1cc2ncnc(Nc3ccc(F)c(Cl)c3)c2cc1OCCCN1CCOCC1 [Gefitinib]; details: max 10 µM
# Procedure, shortened: (§1)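 Cancer cell lines were seeded in 1536-well plates in 7.5 μl DMEM/F12 or RPMI with 10% FBS, held 24 hours at 37°C and 5% CO2, then dosed for 72 hours (final DMSO typically 0.2%). Viability was read by CellTiter-Glo 2.0 luminescence and scaled between blank-well and DMSO-well means. The single-agent IC50 comes from dose responses fitted to a two-parameter logistic curve with a non-linear mixed effects model.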
# Doxorubicin = compound: COc1cccc2c1C(=O)c1c(O)c3c(c(O)c1C2=O)C[C@@](O)(C(=O)CO)C[C@@H]3O[C@H]1C[C@H](N)[C@H](O)[C@H](C)O1 [Doxorubicin]; details: max 1 µM
# Procedure, shortened: as §1
# Crizotinib = compound: C[C@@H](Oc1cc(-c2cnn(C3CCNCC3)c2)cnc1N)c1c(Cl)ccc(F)c1Cl [Crizotinib]; details: max 10 µM
# Procedure, shortened: as §1
# SG3199 = compound: CC1=CN2[C@@H](C1)C=NC3=CC(=C(C=C3C2=O)OC)OCCCCCOC4=C(C=C5C(=C4)N=C[C@@H]6CC(=CN6C5=O)C)OC [SG3199]; details: max 0.001 µM
# Procedure, shortened: as §1
# Palbociclib = compound: CC(=O)c1c(C)c2cnc(Nc3ccc(N4CCNCC4)cn3)nc2n(C2CCCC2)c1=O [Palbociclib]; details: max 10 µM
# Procedure, shortened: as §1
# Venetoclax = compound: CC1(C)CCC(CN2CCN(c3ccc(C(=O)NS(=O)(=O)c4ccc(NCC5CCOCC5)c([N+](=O)[O-])c4)c(Oc4cnc5[nH]ccc5c4)c3)CC2)=C(c2ccc(Cl)cc2)C1 [Venetoclax]; details: max 1 µM
# Procedure, shortened: as §1
# AZD1390 = compound: CC(C)n1c(=O)n(C)c2cnc3cc(F)c(-c4ccc(OCCCN5CCCCC5)nc4)cc3c21 [AZD1390]; details: max 0.3 µM
# Procedure, shortened: as §1
# AZD7648 = compound: Cc1cc2ncnn2cc1Nc1ncc2c(n1)n(C1CCOCC1)c(=O)n2C [AZD7648]; details: max 10 µM
# Procedure, shortened: as §1
# Prexasertib = compound: COc1cccc(OCCCN)c1-c1cc(Nc2cnc(C#N)cn2)n[nH]1 [Prexasertib]; details: max 1 µM
# Procedure, shortened: as §1
# Taselisib = compound: Cc1nc(-c2cn3c(n2)-c2ccc(-c4cnn(C(C)(C)C(N)=O)c4)cc2OCC3)n(C(C)C)n1 [Taselisib]; details: max 10 µM
# Procedure, shortened: as §1
# Olaparib = compound: O=C(c1cc(Cc2n[nH]c(=O)c3ccccc23)ccc1F)N1CCN(C(=O)C2CC2)CC1 [Olaparib]; details: max 10 µM
# Procedure, shortened: as §1
# Selumetinib = compound: Cn1cnc2c(F)c(Nc3ccc(Br)cc3Cl)c(C(=O)NOCCO)cc21 [Selumetinib]
# Procedure, shortened: as §1
# AZD0156 = compound: CN(C)CCCOc1ccc(-c2ccc3ncc4c(c3c2)n(C2CCOCC2)c(=O)n4C)cn1 [AZD0156]
# Procedure, shortened: as §1
# SN-38 = compound: CCc1c2c(nc3ccc(O)cc13)-c1cc3c(c(=O)n1C2)COC(=O)[C@]3(O)CC [SN-38]; details: max 0.3 µM
# Procedure, shortened: as §1
# AZD5991 = compound: Cc1c2c(nn1C)CSCc1cc(n(C)n1)CSc1cc(c3ccccc3c1)OCCCc1c(C(=O)O)n(C)c3c-2c(Cl)ccc13 [AZD5991]; details: max 1 µM
# Procedure, shortened: as §1
# Savolitinib = compound: C[C@@H](c1ccc2nccn2c1)n1nnc2ncc(-c3cnn(C)c3)nc21 [Savolitinib]; details: max 1 µM
# Procedure, shortened: as §1
# AZD2811 = compound: CCN(CCO)CCCOc1ccc2c(Nc3cc(CC(=O)Nc4cccc(F)c4)[nH]n3)ncnc2c1 [AZD2811]; details: max 1 µM
# Procedure, shortened: as §1
# Lapatinib = compound: CS(=O)(=O)CCNCc1ccc(-c2ccc3ncnc(Nc4ccc(OCc5cccc(F)c5)c(Cl)c4)c3c2)o1 [Lapatinib]; details: max 10 µM
# Procedure, shortened: as §1
# AZD5153 = compound: COc1nnc2ccc(N3CCC(c4ccc(OCCN5CCN(C)C(=O)[C@H]5C)cc4)CC3)nn12 [AZD5153]; details: max 1 µM
# Procedure, shortened: as §1
# Trametinib = compound: CC(=O)Nc1cccc(-n2c(=O)n(C3CC3)c(=O)c3c(Nc4ccc(I)cc4F)n(C)c(=O)c(C)c32)c1 [Trametinib]; details: max 1 µM
# Procedure, shortened: as §1
# AZD6738 = compound: C[C@@H]1COCCN1C2=NC(=NC(=C2)C3(CC3)[S@](=N)(=O)C)C4=C5C=CNC5=NC=C4 [AZD6738]; details: max 10 µM
# Procedure, shortened: as §1
# Dasatinib = compound: CC1=C(C(=CC=C1)Cl)NC(=O)C2=CN=C(S2)NC3=CC(=NC(=N3)C)N4CCN(CC4)CCO [Dasatinib]; details: max 2 µM
# Procedure, shortened: as §1
# Capivasertib = compound: C1CN(CCC1(C(=O)N[C@@H](CCO)C2=CC=C(C=C2)Cl)N)C3=NC=NC4=C3C=CN4 [Capivasertib]
# Procedure, shortened: as §1
# AZD8186 = compound: C[C@@H](Nc1cc(F)cc(F)c1)c1cc(C(=O)N(C)C)cc2c(=O)cc(N3CCOCC3)oc12 [AZD8186]; details: max 3 µM
# Procedure, shortened: as §1
# Alisertib = compound: COc1cc(Nc2ncc3c(n2)-c2ccc(Cl)cc2C(c2c(F)cccc2OC)=NC3)ccc1C(=O)O [Alisertib]; details: max 10 µM
# Procedure, shortened: as §1
# AZD1775 = compound: C=CCn1c(=O)c2cnc(Nc3ccc(N4CCN(C)CC4)cc3)nc2n1-c1cccc(C(C)(C)O)n1 [AZD1775]
# Procedure, shortened: as §1
# AZD4320 = compound: CN(CC[C@H](CSC1=CC=CC=C1)NC2=C(C=C(C=C2)S(=O)(=O)NC(=O)C3=CC=C(C=C3)N4CCC(CC4)[C@H](C5=CC=CC=C5C6=CC=C(C=C6)Cl)O)S(=O)(=O)C(F)(F)F)CCO [AZD4320]; details: max 1 µM
# Procedure, shortened: as §1
# MK-2206 = compound: NC1(c2ccc(-c3nc4ccn5c(=O)[nH]nc5c4cc3-c3ccccc3)cc2)CCC1 [MK-2206]; details: max 10 µM
# Procedure, shortened: as §1
Cell Line,"IC50, cell viability 72 h (Gefitinib)","IC50, cell viability 72 h (Doxorubicin)","IC50, cell viability 72 h (Crizotinib)","IC50, cell viability 72 h (SG3199)","IC50, cell viability 72 h (Palbociclib)","IC50, cell viability 72 h (Venetoclax)","IC50, cell viability 72 h (AZD1390)","IC50, cell viability 72 h (AZD7648)","IC50, cell viability 72 h (Prexasertib)","IC50, cell viability 72 h (Taselisib)","IC50, cell viability 72 h (Olaparib)","IC50, cell viability 72 h (Selumetinib; max 10 µM)","IC50, cell viability 72 h (AZD0156; max 3 µM)","IC50, cell viability 72 h (SN-38)","IC50, cell viability 72 h (AZD5991)","IC50, cell viability 72 h (Savolitinib)","IC50, cell viability 72 h (AZD2811)","IC50, cell viability 72 h (Lapatinib)","IC50, cell viability 72 h (AZD5153)","IC50, cell viability 72 h (Trametinib)","IC50, cell viability 72 h (AZD6738)","IC50, cell viability 72 h (Dasatinib)","IC50, cell viability 72 h (Capivasertib; max 10 µM)","IC50, cell viability 72 h (AZD8186)","IC50, cell viability 72 h (Alisertib)","IC50, cell viability 72 h (AZD1775; max 3 µM)","IC50, cell viability 72 h (AZD4320)","IC50, cell viability 72 h (Selumetinib; max 3 µM)","IC50, cell viability 72 h (AZD0156; max 1 µM)","IC50, cell viability 72 h (Capivasertib; max 3 µM)","IC50, cell viability 72 h (AZD1775; max 1 µM)","IC50, cell viability 72 h (MK-2206)"
MHH-PREB-1 (B-Cell Non-Hodgkin's Lymphoma),> 10000 nM,317 nM,8080 nM,> 1 nM,> 10000 nM,> 1000 nM,> 300 nM,> 10000 nM,8.91 nM,> 10000 nM,> 10000 nM,> 10000 nM,> 3000 nM,58.4 nM,> 1000 nM,> 1000 nM,> 1000 nM,> 10000 nM,756 nM,> 1000 nM,2080 nM,> 2000 nM,> 10000 nM,> 3000 nM,> 10000 nM,935 nM,> 1000 nM,,,,,
LB771-HNC (Head and Neck Carcinoma),> 10000 nM,> 1000 nM,> 10000 nM,> 1 nM,> 10000 nM,> 1000 nM,> 300 nM,> 10000 nM,367 nM,2670 nM,> 10000 nM,> 10000 nM,> 3000 nM,> 300 nM,> 1000 nM,> 1000 nM,> 1000 nM,> 10000 nM,> 1000 nM,> 1000 nM,> 10000 nM,> 2000 nM,> 10000 nM,> 3000 nM,6250 nM,742 nM,> 1000 nM,,,,,
KARPAS-231 (B-Cell Non-Hodgkin's Lymphoma),> 10000 nM,899 nM,> 10000 nM,> 1 nM,> 10000 nM,7 nM,> 300 nM,> 10000 nM,12.5 nM,> 10000 nM,> 10000 nM,> 10000 nM,> 3000 nM,1.68 nM,31.4 nM,> 1000 nM,264 nM,> 10000 nM,> 1000 nM,> 1000 nM,6030 nM,> 2000 nM,> 10000 nM,> 3000 nM,1020 nM,123 nM,21.2 nM,,,,,
SW626 (Colorectal Carcinoma),> 10000 nM,> 1000 nM,> 10000 nM,> 1 nM,> 10000 nM,> 1000 nM,> 300 nM,> 10000 nM,127 nM,> 10000 nM,> 10000 nM,2810 nM,> 3000 nM,> 300 nM,> 1000 nM,> 1000 nM,> 1000 nM,> 10000 nM,150 nM,111 nM,> 10000 nM,> 2000 nM,> 10000 nM,> 3000 nM,> 10000 nM,1490 nM,> 1000 nM,,,,,
CTB-1 (B-Cell Non-Hodgkin's Lymphoma),,248 nM,,> 1 nM,,> 1000 nM,,> 10000 nM,16.4 nM,> 10000 nM,> 10000 nM,,,7.48 nM,> 1000 nM,,249 nM,,,> 1000 nM,2010 nM,,,> 3000 nM,435 nM,,> 1000 nM,> 3000 nM,> 1000 nM,> 3000 nM,388 nM,
639-V (Bladder Carcinoma),> 10000 nM,574 nM,> 10000 nM,> 1 nM,> 10000 nM,> 1000 nM,> 300 nM,> 10000 nM,948 nM,2460 nM,> 10000 nM,> 10000 nM,> 3000 nM,3.66 nM,> 1000 nM,> 1000 nM,> 1000 nM,> 10000 nM,257 nM,> 1000 nM,> 10000 nM,1380 nM,> 10000 nM,> 3000 nM,2980 nM,2210 nM,> 1000 nM,,,,,
NCI-H747 (Colorectal Carcinoma),> 10000 nM,> 1000 nM,> 10000 nM,> 1 nM,> 10000 nM,> 1000 nM,> 300 nM,> 10000 nM,> 1000 nM,2380 nM,> 10000 nM,309 nM,> 3000 nM,> 300 nM,> 1000 nM,> 1000 nM,> 1000 nM,> 10000 nM,101 nM,5.4 nM,> 10000 nM,542 nM,4660 nM,> 3000 nM,> 10000 nM,2510 nM,> 1000 nM,,,,,2200 nM

# Source: the supplement of paper PMC11061612
